Measurements: patent publication US6632643B2, “Use of α-1,4-glucan lyase for preparation of 1,5-D-hydrofructose” (Danisco A/S, priority 1993, dated 2003)
Marks after values point to notes of the source that are not given here.

Experiments:
lyase from M. costata = assay: Relative degrading rates of the lyase from M. costata towards various substrates; assay type: biochemical, Morchella costata; conditions: for activity (maltotetraose as 100%): purified fungal lyase, section B.1.4.3
[1] = test system: α-1,4-glucan lyase from the parasite-free red seaweed Gracilariopsis lemaneiformis; assay: Degradation rates of the Californian algal lyase on various substrates; assay type: biochemical; conditions: for AF released: substrate 10 mg/ml, pH 3.8, 40 min at 45° C.
Protocol: Reaction conditions: The reaction mixture contained 10 mM of HOAc-NaOAc (pH 3.8). The substrate concentration was 10 mg/ml. The final volume was 100 ul after the addition of lyase and water. The reaction time was 40 min at 45° C.

[2] = test system: lyase from the fungal infected red algae; assay: Inhibition, activation and stabilisation of the lyase from fungal infected algae; assay type: biochemical, fungal infected Gracilariopsis lemaneiformis
Protocol: […] The reaction was carried out at 30° C. for 30 min and stopped by the addition of 3,5-dinitrosalicylic acid reagent. Optical density at 550 nm was measured after standing at room temperature for 10 min.

lyase from M. vulgaris = assay: Relative degrading rates of the lyase from M. vulgaris towards various substrates; assay type: biochemical, Morchella vulgaris; conditions: for Activity (%) (maltotetraose = 100%): all substrates 10 mg ml^−1
Protocol: The activity observed for maltotetraose is treated as 100%. The final concentration of all substrates was 10 mg ml^−1.

[3] = test system: lyase from the fungal infected Gracilariopsis lemaneiformis; assay: Reaction rates with glycogen and amylopectin, lyase from fungal infected Gracilariopsis lemaneiformis; assay type: biochemical
[4] = test system: lyase from the fungal infected algae; assay: Effect of reaction media on production of AF by the lyase; assay type: biochemical, fungal infected Gracilariopsis lemaneiformis; conditions: NaCl 0.85% (0.145 M) in the reaction mixture
Source text: The production of AF using either pure water or 0.85% NaCl as reaction medium decreased the yield.

[5] = test system: α-1,4-glucan lyase isolated from M. costata; assay: Oligosaccharide specificity and AF formation by M. costata lyase, Dionex HPLC; assay type: biochemical, Morchella costata; conditions: 30° C.
Protocol: The specificity of α-1,4-glucan lyase isolated from M. costata for different oligosaccharides was tested. […] The oligosaccharides were dissolved in H2O at a concentration of 8 mg/ml. The enzyme assay contained 150 μl substrate G2/G3/G4/G5/G6/G7, 120 μl 0.1M MBS pH 6.3 and 30 μl purified enzyme. The reaction mixture was incubated for 60 min at 30° C. Afterwards the reaction was stopped by boiling for 3 min and 900 μl absolute ethanol was added for precipitation. After centrifugation at 20.000×g for 5 min at 4° C. the supernatant was transferred to a new eppendorf tube and lyophilized.
The freeze-dried samples were dissolved in 1000 μl H2O and were filtrated through a 0.22 μm Millipore filter before 25 μl of the sample was loaded on the Dionex HPLC.
Analyses were performed on a Dionex 4500i chromatography system consisting of a GPM-2 pump and a PED detector which was used in pulse-amperometric detection mode.
α-1,4-glucan lyase from M.costata hydrolyses starch to the end-product 1,5-anhydrofructose. The end-product was shown by HPLC, method 2. The enzyme assay contained 500 μl amylopectin (20 mg/ml, dissolved in H2O), 400 μl 0.1M MES pH 6.3 and 100 μl purified enzyme. The reaction mixture was incubated at 30° C. and the reaction was stopped by boiling after 30 or 120 min incubation. […]

α-1,4-glucan lyase = assay: Activity of the lyase towards maltosaccharides (summary); assay type: biochemical
M. vulgaris lyase = assay: Reversible inhibitors of the M. vulgaris lyase; assay type: biochemical, Morchella vulgaris; conditions: 0.1 M inhibitor
Protocol: (§1) The reaction was carried out at 30 ° C. for 30 min and stopped by the addition of 3,5-dinitrosalicylic acid reagent. Optical density at 550 nm was measured after standing at room temperature for 10 min.

M. costata lyase = assay: Reversible and irreversible inhibitors of the fungal lyase (M. costata); assay type: biochemical, Morchella costata; conditions: for decrease of lyase activity (inhibition): 0.1 M inhibitor
Protocol: as §1
Under the same assay conditions and in the presence of 2 mM PCMB, the activity decreased by 60% for the M. costata lyase and 98% for the lyase from the fungal infected red algae. This means that the fungal lyase was much less sensitive to heavy metal inhibition.

[6] = Reduction of 3,5-dinitrosalicylic acid by AF; assay type: physicochemical
[7] = Induction period of yogurt salad dressing with 50% oil; conditions: 500 ppm; PF = IP with antioxidant / IP without
Source text: For each temperature defined as PF=IP of the oil with added antioxidant/IP of the same oil without added antioxidant

[8] = ESR analysis of hydroxyl radical scavenging (Fenton reaction, DMPO spin trap); conditions: H2O2 0.17 mM, Fe2+ 4.8 μM
Protocol: Hydroxyl radicals were generated by a Fenton reaction with H2O2 (0.17 mM) and FeSO4 (4.8 μM). The generated radicals were trapped by 5,5-dimethyl-1-pyrroline N-oxide (DMPO, 9.7 mM). AF was added in concentrations of 1.3 mM and 6.3 mM. A water soluble extract of rosemary (Rosmarinus officinalis L.) was analyzed in a concentration of 0.25 mg/ml (in grams equivalent to 1.26 mM AF). Measurements were carried out at room temperature (20±1° C.) after 120 s and repeated for the same reaction mixture after 300 s with the following spectrometer settings: Center field 3475.60 G; sweep width 55 G; microwave power 20 mW; modulation frequency 100 kHz; modulation amplitude 1.01 G; receiver gain 1.00·10^5; conversion time 81.92 ms time constant 163.84 ms and sweep time 83.89 s.
The generated hydroxyl radicals were trapped by DMPO. The spin adduct gives rise to a characteristic 1:2:2:1 ESR spectrum. The peak height of the spectrum is proportional to the quantitative amount of generated spin adduct. Addition of both DMPO and AF will set up a competition between the spin trap and AF. A reduction of peak height will indicate a good scavenging activity of AF.

[9] = Induction period of 50% mayonnaise in bomb calorimeter, 80° C., pure O2; conditions: +500 ppm
Protocol: In the test procedure the anti-oxidants were added to the mayonnaise to provide an anti-oxidant concentration in the order of about 500 ppm. The mayonnaise was then placed in a bomb calorimeter at temperature 80° C. containing pure O2. An induction period to the onset of substantial oxidation of the product is then measured.

[10] = Electrochemical oxygen consumption in methyl linoleate emulsion; conditions: AF 15, 146 and 680 μM; MMb initiated; pH 5.8; 25.0 °C
Protocol: The activity of AF was investigated in a methyl linoleate emulsion as described by Jorgensen and Skibsted (Z. Lebensm. Unters. Forsch. (1993) 196: 423-429) with minor modifications: To 5.00 ml of a 1.33 mM methyl linoleate emulsion in 5.0 mM aqueous phosphate buffer with pH=5.8 and 0.2 w/w % Tween 20 as emulsifier was added AF in the following concentrations: 0, 15, 146 and 680μM. The oxidation in the system was initiated by addition of 50 μl 0.26 M metmyoglobin (MMb) final concentration 0.26 mM. Immediately after initiating the reaction the sample was injected to a thermostated (25.0±0.1° C.) 70 μl closed cell, effectively excluding diffusion of oxygen into the system. The oxygen consumption was measured by a Clark electrode, which was connected to a PC data collection program. The relative oxygen concentration (%) was registered every 30s.

[11] = test system: α-1,4-glucan lyase from the parasite-free red seaweed Gracilariopsis lemaneiformis; assay: PCMB inhibition of the lyase from Californian alga; assay type: biochemical; conditions: final concentration 2 mM
Protocol: 7. At a final concentration of 2 mM, p-chloromercuribenzoic acid (PCMB) inhibited the lyase activity by 96%, indicating the —SH group(s) is essential for the enzymatic activity.

Compound: Amylopectin
- degradation by the fungal lyase (lyase from M. costata): also degraded
- relative degrading rate (maltotetraose = 100%) (lyase from M. costata; substrate 10 mg/ml): 106.5%
- substrate concentration at which half of the maximal velocity rate was reached [1]: 3.76 mg/mL
- AF released [1]: 732 nmol
- stabilizing effect on the lyase ([2]; soluble and immobilized enzyme system): stabilizing effect
- Activity (%) (maltotetraose = 100%) (lyase from M. vulgaris): 139.9%
- relative reaction rates ([3]; 25 C.): 0.818^a
- relative reaction rates ([3]; 30 C.): 1.133^a
- relative reaction rates ([3]; 45 C.): 1.17^a

Compound: [Cl-].[Na+] [NaCl]
- increase of AF yield [4]: up to 1 -fold

Compound: OC[C@H]1O[C@H](O[C@H]2[C@H](O)[C@@H](O)C(O)O[C@@H]2CO)[C@H](O)[C@@H](O)[C@@H]1O (mixture of isomers) [Maltose, maltose]
- 1,5-anhydrofructose formed ([5]; 8 mg/ml substrate, pH 6.3, 60 min): almost no 1,5-anhydrofructose was formed
- activity (maltotetraose as 100%) (lyase from M. costata): 2%
- AF released [1]: 657 nmol
- lyase activity towards maltosaccharide (α-1,4-glucan lyase): low activity
- Activity (%) (maltotetraose = 100%) (lyase from M. vulgaris): 10.1%
- inhibition of lyase reaction (M. vulgaris lyase; Amylopectin (1%)): 80%
- inhibition of lyase reaction (M. vulgaris lyase; Glycogen (1%)): 57%
- decrease of lyase activity (inhibition) (M. costata lyase; Amylopectin 2%): (67.2%)
- decrease of lyase activity (inhibition) (M. costata lyase; Glycogen 2%): (49.7%)

Compound: O=C1CO[C@H](CO)[C@@H](O)[C@@H]1O [AF, 1,5-D-anhydrofructose]
- inhibition of enzyme activity by the endproduct ([5]; amylopectin, 30 and 120 min incubation): not inhibited
- reduction of 3,5-dinitrosalicylic acid to 3-amino-5-nitrosalicylic acid [6]: can easily reduce
- PF [7]: 1.06
- Peak height [120 s] ([8]; Anhydro fructose 1.3 mM): 2634
- Peak height [300 s] ([8]; Anhydro fructose 1.3 mM): 2545
- Peak height [120 s] ([8]; Anhydro fructose 6.3 mM): 1781
- Peak height [300 s] ([8]; Anhydro fructose 6.3 mM): 1900
- IP (hours), Induction Period [9]: 32.0 h
- oxygen consumption (relative oxygen concentration) [10]: a lag-phase is observed

Compound: OC[C@H]1O[C@H](O[C@H]2[C@H](O)[C@@H](O)[C@@H](O[C@H]3[C@H](O)[C@@H](O)[C@@H](O[C@H]4[C@H](O)[C@@H](O)[C@@H](O[C@H]5[C@H](O)[C@@H](O)[C@@H](O[C@H]6[C@H](O)[C@@H](O)[C@@H](O[C@H]7[C@H](O)[C@@H](O)C(O)O[C@@H]7CO)O[C@@H]6CO)O[C@@H]5CO)O[C@@H]4CO)O[C@@H]3CO)O[C@@H]2CO)[C@H](O)[C@@H](O)[C@@H]1O (some centres unmarked) [Maltoheptaose, maltoheptaose]
- activity (maltotetraose as 100%) (lyase from M. costata): 76%
- relative degrading rate (maltotetraose = 100%) (lyase from M. costata; substrate 2 mg/ml): 82.2%
- relative degrading rate (maltotetraose = 100%) (lyase from M. costata; substrate 4 mg/ml): 81.5%
- relative degrading rate (maltotetraose = 100%) (lyase from M. costata; substrate 10 mg/ml): 75.7%
- AF released [1]: 865 nmol
- lyase activity towards maltosaccharide (α-1,4-glucan lyase): lower activity
- Activity (%) (maltotetraose = 100%) (lyase from M. vulgaris): 73.9%

Compound: O=C(O)c1cc[c]([Hg][Cl])cc1 [PCMB, p-chloromercuribenzoic acid]
- activity decreased by ([2]; 2 mM PCMB): 98%
- inhibition of lyase activity [11]: 96%
- activity decreased by (M. costata lyase; 2 mM PCMB): 60%

Compound: O=C[C@H](O)[C@@H](O)[C@H](O)[C@H](O)CO [Glucose, glucose]
- degradation (AF detectable on TLC plates) (lyase from M. costata; incubated for 48 h): no AF detectable
- degradation by the lyase [1]: not able to degrade
- degradation (AF detectable on TLC plates) (lyase from M. vulgaris; incubated for 48 h): no AF detectable
- inhibition of lyase reaction (M. vulgaris lyase; Amylopectin (1%)): 28%
- inhibition of lyase reaction (M. vulgaris lyase; Glycogen (1%)): 5%
- decrease of lyase activity (inhibition) (M. costata lyase; Amylopectin 2%): 7%
- decrease of lyase activity (inhibition) (M. costata lyase; Glycogen 1% (10 mg/ml)): 0.000%
- decrease of lyase activity (inhibition) (M. costata lyase; Glycogen 1% (10 mg/ml), listed as glucose): not affected

Compound: OC[C@H]1NC[C@H](O)[C@@H](O)[C@@H]1O [deoxyjirimycin]
- activity decreased to (remaining activity) ([2]; 25 μM, amylopectin 2%): 10.4%
- lyase activity ([2]; 100 μM, amylopectin 2%): completely lost
- activity decreased to (remaining activity) (M. costata lyase; 25 μM, amylopectin 2%): 10.4%
- lyase activity (M. costata lyase; 100 μM, amylopectin 2%): completely lost
